Experimental data published in patent US12617779B2, “Self degradation-type CDK9 inhibitor prodrug and liposome encapsulating same” (Sumitomo Pharma Co., Ltd., priority 2021, dated 2026).

Assay: Evaluation of conversion rate to active form in buffer solution (Experimental Example 1)
Format: physicochemical
Settings: for Production rate of Alvocidib / Residual rate: 25 umol/L in buffer solution; for Stability in buffer solution at pH 5: pH 5, 37° C., up to 2 or 3 hours; for Conversion to Alvocidib at pH 7.4: pH 7.4, 37° C., up to 3 hours
Outline: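 25 umol/L cpd, 37° C; 50 mM citrate pH 5.0/5.5, 50 mM phosphate pH 6.0/6.5/7.0/7.4. HPLC at 0–3 h: residual rate and Alvocidib production rate.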

Question: What does the source list for `CN1CC[C@H](c2c(OC(=O)N(C)CC3CCCCN3)cc(O)c3c(=O)cc(-c4ccccc4Cl)oc23)[C@H](O)C1` (stereo partly drawn) [Example 8, 2-(2-chlorophenyl)-5-hydroxy-8-[(3S,4R)-3-hydroxy-1-methylpiperidin-4-yl]-4-oxo-4H-1-benzopyran-7-yl methyl[(piperidin-2-yl)methyl]carbamate]?
Answer: Production rate of Alvocidib (pH5.0, 0 hr, 37° C.): 0.7%; Residual rate (pH5.0, 0 hr, 37° C.): 95.4%; Stability in buffer solution at pH 5: stable; Production rate of Alvocidib (pH5.0, 0.5 hr, 37° C.): 1.2%; Residual rate (pH5.0, 0.5 hr, 37° C.): 95.1%; Production rate of Alvocidib (pH5.0, 1 hr, 37° C.): 1.6%; Residual rate (pH5.0, 1 hr, 37° C.): 95.0%; Production rate of Alvocidib (pH5.0, 2 hr, 37° C.): 2.0%; Residual rate (pH5.0, 2 hr, 37° C.): 94.7%; Production rate of Alvocidib (pH5.5, 0 hr, 37° C.): 0.5%; Residual rate (pH5.5, 0 hr, 37° C.): 95.9%; Production rate of Alvocidib (pH5.5, 0.5 hr, 37° C.): 1.6%; Residual rate (pH5.5, 0.5 hr, 37° C.): 95.0%; Production rate of Alvocidib (pH5.5, 1 hr, 37° C.): 2.5%; Residual rate (pH5.5, 1 hr, 37° C.): 94.3%; Production rate of Alvocidib (pH5.5, 2 hr, 37° C.): 3.5%; Residual rate (pH5.5, 2 hr, 37° C.): 93.4%; Production rate of Alvocidib (pH6.0, 0 hr, 37° C.): 0.8%; Residual rate (pH6.0, 0 hr, 37° C.): 95.7%; Production rate of Alvocidib (pH6.0, 0.5 hr, 37° C.): 4.4%; Residual rate (pH6.0, 0.5 hr, 37° C.): 92.1%; Production rate of Alvocidib (pH6.0, 1 hr, 37° C.): 7.3%; Residual rate (pH6.0, 1 hr, 37° C.): 89.4%; Production rate of Alvocidib (pH6.0, 2 hr, 37° C.): 10.3%; Residual rate (pH6.0, 2 hr, 37° C.): 86.5%; Production rate of Alvocidib (pH6.5, 0 hr, 37° C.): 1.5%; Residual rate (pH6.5, 0 hr, 37° C.): 95.0%; Production rate of Alvocidib (pH6.5, 0.5 hr, 37° C.): 11.2%; Residual rate (pH6.5, 0.5 hr, 37° C.): 85.3%; Production rate of Alvocidib (pH6.5, 1 hr, 37° C.): 18.9%; Residual rate (pH6.5, 1 hr, 37° C.): 77.7%; Production rate of Alvocidib (pH6.5, 2 hr, 37° C.): 25.6%; Residual rate (pH6.5, 2 hr, 37° C.): 71.2%; Production rate of Alvocidib (pH7.0, 0 hr, 37° C.): 4.0%; Residual rate (pH7.0, 0 hr, 37° C.): 92.5%; Production rate of Alvocidib (pH7.0, 0.5 hr, 37° C.): 27.3%; Residual rate (pH7.0, 0.5 hr, 37° C.): 69.3%; Production rate of Alvocidib (pH7.0, 1 hr, 37° C.): 40.0%; Residual rate (pH7.0, 1 hr, 37° C.): 56.7%; Production rate of Alvocidib (pH7.0, 2 hr, 37° C.): 48.2%; Residual rate (pH7.0, 2 hr, 37° C.): 49.0%; Production rate of Alvocidib (pH7.4, 0 hr, 37° C.): 9.7%; Residual rate (pH7.4, 0 hr, 37° C.): 86.7%; Conversion to Alvocidib at pH 7.4: rapidly converted to Alvocidib; Production rate of Alvocidib (pH7.4, 0.5 hr, 37° C.): 45.1%; Residual rate (pH7.4, 0.5 hr, 37° C.): 51.4%; Production rate of Alvocidib (pH7.4, 1 hr, 37° C.): 55.2%; Residual rate (pH7.4, 1 hr, 37° C.): 41.7%; Production rate of Alvocidib (pH7.4, 2 hr, 37° C.): 58.2%; Residual rate (pH7.4, 2 hr, 37° C.): 38.4%

Question: Which results are given for `CCCN(CC1CCCCN1)C(=O)Oc1cc(O)c2c(=O)cc(-c3ccccc3Cl)oc2c1[C@H]1CCN(C)C[C@H]1O` (stereo partly drawn) [Example 9, 2-(2-chlorophenyl)-5-hydroxy-8-[(3S,4R)-3-hydroxy-1-methylpiperidin-4-yl]-4-oxo-4H-1-benzopyran-7-yl [(piperidin-2-yl)methyl]propylcarbamate]?
Answer: Efficiency of conversion to Alvocidib (buffer solution, 37° C.): higher efficiency; Production rate of Alvocidib (pH5.0, 0 hr, 37° C.): 1.4%; Residual rate (pH5.0, 0 hr, 37° C.): 96.2%; Stability in buffer solution at pH 5: stable; Production rate of Alvocidib (pH5.0, 0.5 hr, 37° C.): 1.7%; Residual rate (pH5.0, 0.5 hr, 37° C.): 95.9%; Production rate of Alvocidib (pH5.0, 1 hr, 37° C.): 2.1%; Residual rate (pH5.0, 1 hr, 37° C.): 95.6%; Production rate of Alvocidib (pH5.0, 2 hr, 37° C.): 2.8%; Residual rate (pH5.0, 2 hr, 37° C.): 94.9%; Production rate of Alvocidib (pH5.0, 3 hr, 37° C.): 3.6%; Residual rate (pH5.0, 3 hr, 37° C.): 94.0%; Production rate of Alvocidib (pH5.5, 0 hr, 37° C.): 1.4%; Residual rate (pH5.5, 0 hr, 37° C.): 96.2%; Production rate of Alvocidib (pH5.5, 0.5 hr, 37° C.): 2.4%; Residual rate (pH5.5, 0.5 hr, 37° C.): 95.2%; Production rate of Alvocidib (pH5.5, 1 hr, 37° C.): 3.4%; Residual rate (pH5.5, 1 hr, 37° C.): 94.4%; Production rate of Alvocidib (pH5.5, 2 hr, 37° C.): 5.2%; Residual rate (pH5.5, 2 hr, 37° C.): 92.5%; Production rate of Alvocidib (pH5.5, 3 hr, 37° C.): 7.2%; Residual rate (pH5.5, 3 hr, 37° C.): 90.5%; Production rate of Alvocidib (pH6.0, 0 hr, 37° C.): 1.5%; Residual rate (pH6.0, 0 hr, 37° C.): 96.2%; Production rate of Alvocidib (pH6.0, 0.5 hr, 37° C.): 4.9%; Residual rate (pH6.0, 0.5 hr, 37° C.): 92.9%; Production rate of Alvocidib (pH6.0, 1 hr, 37° C.): 8.2%; Residual rate (pH6.0, 1 hr, 37° C.): 89.5%; Production rate of Alvocidib (pH6.0, 2 hr, 37° C.): 14.4%; Residual rate (pH6.0, 2 hr, 37° C.): 83.0%; Production rate of Alvocidib (pH6.0, 3 hr, 37° C.): 20.8%; Residual rate (pH6.0, 3 hr, 37° C.): 76.6%; Production rate of Alvocidib (pH6.5, 0 hr, 37° C.): 1.7%; Residual rate (pH6.5, 0 hr, 37° C.): 95.9%; Production rate of Alvocidib (pH6.5, 0.5 hr, 37° C.): 11.2%; Residual rate (pH6.5, 0.5 hr, 37° C.): 86.4%; Production rate of Alvocidib (pH6.5, 1 hr, 37° C.): 20.2%; Residual rate (pH6.5, 1 hr, 37° C.): 77.3%; Production rate of Alvocidib (pH6.5, 2 hr, 37° C.): 35.4%; Residual rate (pH6.5, 2 hr, 37° C.): 61.9%; Production rate of Alvocidib (pH6.5, 3 hr, 37° C.): 49.0%; Residual rate (pH6.5, 3 hr, 37° C.): 48.4%; Production rate of Alvocidib (pH7.0, 0 hr, 37° C.): 2.2%; Residual rate (pH7.0, 0 hr, 37° C.): 95.4%; Production rate of Alvocidib (pH7.0, 0.5 hr, 37° C.): 24.1%; Residual rate (pH7.0, 0.5 hr, 37° C.): 73.1%; Production rate of Alvocidib (pH7.0, 1 hr, 37° C.): 42.0%; Residual rate (pH7.0, 1 hr, 37° C.): 55.1%; Production rate of Alvocidib (pH7.0, 2 hr, 37° C.): 66.1%; Residual rate (pH7.0, 2 hr, 37° C.): 31.0%; Production rate of Alvocidib (pH7.0, 3 hr, 37° C.): 81.0%; Residual rate (pH7.0, 3 hr, 37° C.): 16.7%; Production rate of Alvocidib (pH7.4, 0 hr, 37° C.): 3.4%; Residual rate (pH7.4, 0 hr, 37° C.): 94.3%; Conversion to Alvocidib at pH 7.4: rapidly converted to Alvocidib; Production rate of Alvocidib (pH7.4, 0.5 hr, 37° C.): 48.7%; Residual rate (pH7.4, 0.5 hr, 37° C.): 48.7%; Production rate of Alvocidib (pH7.4, 1 hr, 37° C.): 73.6%; Residual rate (pH7.4, 1 hr, 37° C.): 23.7%; Production rate of Alvocidib (pH7.4, 2 hr, 37° C.): 92.4%; Residual rate (pH7.4, 2 hr, 37° C.): 5.6%; Production rate of Alvocidib (pH7.4, 3 hr, 37° C.): 96.7%; Residual rate (pH7.4, 3 hr, 37° C.): 1.1%
